The results in this text go back to patent US6506772B1, “Substituted [1,2,4]triazolo[1,5a]pyridine derivatives with activity as adenosine receptor ligands” (Hoffmann-La Roche Inc., priority 2000, dated 2003).

The target in test [1] is T1, human adenosine A2A receptor (Homo sapiens, UniProt P29274).
T1 construct: expressed in transfected cells; host or cells: CHO cells, Semliki Forest virus expression system; membrane preparation
Description: Human adenosine A2A receptor [3H]-SCH-58261 binding assay. Particulars: for selectivity (A1/A2a): ratio KiHA1 divided by KiHA2A; for Ki: recombinant human A2A in CHO cell membranes, [3H]-SCH-58261, Cheng-Prussoff, read-out: Ki hA2A.

The next test concerns the target T2, HA1 adenosine receptor (Homo sapiens, UniProt P30542).
T2 sequence (P30542 1-326): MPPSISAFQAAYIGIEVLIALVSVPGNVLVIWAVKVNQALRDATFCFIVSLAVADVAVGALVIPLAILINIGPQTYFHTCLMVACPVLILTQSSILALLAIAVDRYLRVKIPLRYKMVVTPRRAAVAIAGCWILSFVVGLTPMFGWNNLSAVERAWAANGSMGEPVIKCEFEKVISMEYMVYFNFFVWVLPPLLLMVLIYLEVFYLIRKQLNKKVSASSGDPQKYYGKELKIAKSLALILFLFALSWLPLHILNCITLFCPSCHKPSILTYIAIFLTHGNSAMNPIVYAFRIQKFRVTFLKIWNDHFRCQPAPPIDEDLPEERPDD
The test is described as follows: Human adenosine A1 receptor affinity (Ki hA1). The test is classed as binding.

T1 sequence (P29274 whole entry): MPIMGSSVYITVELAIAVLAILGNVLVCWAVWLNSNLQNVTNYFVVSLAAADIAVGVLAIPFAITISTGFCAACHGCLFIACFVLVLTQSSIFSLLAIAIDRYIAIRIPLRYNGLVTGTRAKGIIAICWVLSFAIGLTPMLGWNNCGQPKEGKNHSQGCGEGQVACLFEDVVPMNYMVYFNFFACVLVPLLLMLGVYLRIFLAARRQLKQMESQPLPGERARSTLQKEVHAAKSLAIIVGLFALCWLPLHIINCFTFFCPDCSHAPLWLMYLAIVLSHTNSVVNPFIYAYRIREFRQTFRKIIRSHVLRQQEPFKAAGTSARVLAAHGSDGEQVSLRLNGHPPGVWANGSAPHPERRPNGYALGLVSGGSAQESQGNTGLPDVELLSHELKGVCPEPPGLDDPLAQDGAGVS

For orientation: Ki means the equilibrium dissociation constant of an inhibitor or competing ligand from its target. `Nc1cc(C(=O)N2CC=CC2)cc2nc(-c3ccccn3)nn12` [Example 408, (5-Amino-2-pyridin-2-yl-[1,2,4]triazolo[1,5-a]pyridin-7-yl)-(2,5-dihydro-pyrrol-1-yl)-methanone]: in test [1], the “selectivity (A1/A2a)” value was 14.9. The Ki in test [1] worked out at 91.8 nM; at HA1 adenosine receptor, 1370 nM.

Consider `C=CCN(C)C(=O)c1cc(N)n2nc(-c3ccccn3)nc2c1` [Example 409, 5-Amino-2-pyridin-2-yl-[1,2,4]triazolo[1,5-a]pyridine-7-carboxylic acid allyl-methyl-amide], for which the “selectivity (A1/A2a)” value in test [1] stood at 16.5. Moreover, the Ki in test [1] amounted to 99.8 nM; at HA1 adenosine receptor it was 1650 nM.

On to `CC(C)N(C)C(=O)c1cc(N)n2nc(-c3ccccn3)nc2c1` [Example 411, 5-Amino-2-pyridin-2-yl-[1,2,4]triazolo[1,5-a]pyridine-7-carboxylic acid isopropyl-methyl-amide], for which, in test [1], the “selectivity (A1/A2a)” value was 22.6 and the Ki came to 62.3 nM. At HA1 adenosine receptor, this compound returned a Ki of 1410 nM.

With `CCCN(C)C(=O)c1cc(N)n2nc(-c3ccccn3)nc2c1` [Example 412, 5-Amino-2-pyridin-2-yl-[1,2,4]triazolo[1,5-a]pyridine-7-carboxylic acid methyl-propyl-amide], in test [1], the “selectivity (A1/A2a)” value is 25.4 and the Ki turned out to be 119 nM. Also, the Ki on HA1 adenosine receptor came out at 3020 nM.

With `CC1CCCN1C(=O)c1cc(N)n2nc(-c3ccccn3)nc2c1` (stereo not drawn) [Example 413, (5-Amino-2-pyridin-2-yl-[1,2,4]triazolo[1,5-a]pyridin-7-yl)-(2-methyl-pyrrolidin-1-yl)-methanone], in test [1], the “selectivity (A1/A2a)” value is listed as 37.8. Besides, the inhibition constant (Ki) in test [1] was 37.8 nM; at HA1 adenosine receptor, 1430 nM.

With `CCN(C(=O)c1cc(N)n2nc(-c3ccccn3)nc2c1)C(C)C` [Example 414, 5-Amino-2-pyridin-2-yl-[1,2,4]triazolo[1,5-a]pyridine-7-carboxylic acid ethyl-isopropyl-amide], in test [1], the “selectivity (A1/A2a)” value amounted to 15.8 and the Ki was found to be 56 nM. In addition, at HA1 adenosine receptor, the affinity, expressed as Ki, was 885 nM.

Consider `CC1C=CC(C)N1C(=O)c1cc(N)n2nc(-c3ccccn3)nc2c1` (stereo not drawn) [Example 415, (5-Amino-2-pyridin-2-yl-[1,2,4]triazolo[1,5-a]pyridin-7-yl)-(2,5-dimethyl-2,5-dihydro-pyrrol-1-yl)-methanone], for which the “selectivity (A1/A2a)” value in test [1] is on record as 3.6. The figures for the Ki (in test [1]; on HA1 adenosine receptor) were 75.4 nM and 274 nM, respectively.

`C=CCN(CC=C)C(=O)c1cc(N)n2nc(-c3ccccn3)nc2c1` [Example 416, 5-Amino-2-pyridin-2-yl-[1,2,4]triazolo[1,5-a]pyridine-7-carboxylic acid diallylamide]: the “selectivity (A1/A2a)” value in test [1] stood at 17.4. The Ki stood at 48.1 nM in test [1] and 835 nM at HA1 adenosine receptor.

Regarding `Nc1cc(C(=O)N2CCCCCC2)cc2nc(-c3ccccn3)nn12` [Example 417, (5-Amino-2-pyridin-2-yl-[1,2,4]triazolo[1,5-a]pyridin-7-yl)-azepan-1-yl-methanone], in test [1], the “selectivity (A1/A2a)” value stood at 31.5 and the Ki stood at 16.9 nM. In addition, the Ki on HA1 adenosine receptor stood at 532 nM.

For the compound `CC1CCCCN1C(=O)c1cc(N)n2nc(-c3ccccn3)nc2c1` (stereo not drawn) [Example 418, (5-amino-2-pyridin-2-yl-[1,2,4]triazolo[1,5-a]pyridin-7-yl)-(2-methyl-piperidin-1-yl)-methanone], in test [1], the “selectivity (A1/A2a)” value came to 24.2 and the Ki came out at 42.4 nM. Moreover, the Ki at HA1 adenosine receptor was determined as 1020 nM.

With `CC1CCCN(C(=O)c2cc(N)n3nc(-c4ccccn4)nc3c2)C1` (stereo not drawn) [Example 419, (5-Amino-2-pyridin-2-yl-[1,2,4]triazolo[1,5-a]pyridin-7-yl)-(3-methyl-piperidin-1-yl)-methanone], the “selectivity (A1/A2a)” value in test [1] amounted to 35.5. Also, the Ki in test [1] was 44.9 nM; on HA1 adenosine receptor, 1600 nM.

Consider `CCCN(CCC)C(=O)c1cc(N)n2nc(-c3ccccn3)nc2c1` [Example 420, 5-Amino-2-pyridin-2-yl-[1,2,4]triazolo[1,5-a]pyridine-7-carboxylic acid dipropylamide], for which, in test [1], the “selectivity (A1/A2a)” value is given as 17.5 and the Ki turned out to be 103 nM. Also, the affinity on HA1 adenosine receptor corresponds to a Ki of 1810 nM.

As to `CCCCN(CC)C(=O)c1cc(N)n2nc(-c3ccccn3)nc2c1` [Example 421, 5-Amino-2-pyridin-2-yl-[1,2,4]triazolo[1,5-a]pyridine-7-carboxylic acid butyl-ethyl-amide], in test [1], the “selectivity (A1/A2a)” value amounted to 15.9 and the Ki stood at 85.7 nM. At HA1 adenosine receptor, this compound gave a Ki of 1360 nM.

On to `Nc1cc(C(=O)N2CCCCCCC2)cc2nc(-c3ccccn3)nn12` [Example 422, (5-Amino-2-pyridin-2-yl-[1,2,4]triazolo[1,5-a]pyridin-7-yl)-azocan-1-yl-methanone], for which, in test [1], the “selectivity (A1/A2a)” value was 21.4. The Ki was determined as 17.4 nM in test [1] and 372 nM on HA1 adenosine receptor.

As to `CC1CC(C)CN(C(=O)c2cc(N)n3nc(-c4ccccn4)nc3c2)C1` (stereo not drawn) [Example 423, (5-Amino-2-pyridin-2-yl-[1,2,4]triazolo[1,5-a]pyridin-7-yl)-(3,5-dimethyl-piperidin-1-yl)-methanone], the “selectivity (A1/A2a)” value in test [1] is reported as 24.6. Also, the Ki in test [1] was 33.8 nM; at HA1 adenosine receptor it was 832 nM.

For the compound `CCCN(CC1CC1)C(=O)c1cc(N)n2nc(-c3ccccn3)nc2c1` [Example 424, 5-Amino-2-pyridin-2-yl-[1,2,4]triazolo[1,5-a]pyridine-7-carboxylic acid cyclopropylmethyl-propyl-amide], in test [1], the “selectivity (A1/A2a)” value is 17.7 and the Ki was determined as 49.6 nM. The same compound gave a Ki on HA1 adenosine receptor of 878 nM.

On to `COC[C@H]1CCCN1C(=O)c1cc(N)n2nc(-c3ccccn3)nc2c1` [Example 425, (5-Amino-2-pyridin-2-yl-[1,2,4]triazolo[1,5-a]pyridin-7-yl)-(R-2-methoxymethyl-pyrrolidin-1-yl)-methanone], for which, in test [1], the “selectivity (A1/A2a)” value came to 31.7 and the Ki was 40.8 nM. This compound also came in with a Ki on HA1 adenosine receptor of 1290 nM.

With `COC[C@@H]1CCCN1C(=O)c1cc(N)n2nc(-c3ccccn3)nc2c1` [Example 426, (5-Amino-2-pyridin-2-yl-[1,2,4]triazolo[1,5-a]pyridin-7-yl)-(S-2-methoxymethyl-pyrrolidin-1-yl)-methanone], in test [1], the “selectivity (A1/A2a)” value is recorded as 17.2 and the Ki is 119 nM. The compound further returned a Ki at HA1 adenosine receptor of 2050 nM.

In the case of `CCCCN(CCC)C(=O)c1cc(N)n2nc(-c3ccccn3)nc2c1` [Example 427, 5-Amino-2-pyridin-2-yl-[1,2,4]triazolo[1,5-a]pyridine-7-carboxylic acid butyl-propyl-amide], in test [1], the “selectivity (A1/A2a)” value is on record as 11.7 and the Ki was determined as 102 nM. The compound also registered a Ki at HA1 adenosine receptor of 1190 nM.

As to `C=CCN(C(=O)c1cc(N)n2nc(-c3ccccn3)nc2c1)C1CCCC1` [Example 429, 5-Amino-2-pyridin-2-yl-[1,2,4]triazolo[1,5-a]pyridine-7-carboxylic acid allyl-cyclopentyl-amide], in test [1], the “selectivity (A1/A2a)” value stood at 15.3 and the Ki came to 31 nM. For the same compound, the affinity on HA1 adenosine receptor corresponds to a Ki of 474 nM.

Take `CCC1CCC(C)N(C(=O)c2cc(N)n3nc(-c4ccccn4)nc3c2)C1` (stereo not drawn) [Example 430, (5-Amino-2-pyridin-2-yl-[1,2,4]triazolo[1,5-a]pyridin-7-yl)-(5-ethyl-2-methyl-piperidin-1-yl)-methanone]: in test [1], the “selectivity (A1/A2a)” value came to 10.8 and the Ki worked out at 63.6 nM. The compound also displayed a Ki at HA1 adenosine receptor of 689 nM.

Regarding `CCN(Cc1ccncc1)C(=O)c1cc(N)n2nc(-c3ccccn3)nc2c1` [Example 431, 5-Amino-2-pyridin-2-yl-[1,2,4]triazolo[1,5-a]pyridine-7-carboxylic acid ethyl-pyridin-4-ylmethyl-amide], in test [1], the “selectivity (A1/A2a)” value is 31.2 and the Ki worked out at 33.1 nM. In addition, the Ki at HA1 adenosine receptor was 1030 nM.

`CN(C)C(=O)C1CCCN1C(=O)c1cc(N)n2nc(-c3ccccn3)nc2c1` (stereo not drawn) [Example 432, 1-(5-Amino-2-pyridin-2-yl-[1,2,4]triazolo[1,5-a]pyridine-7-carbonyl)-pyrrolidine-2-carboxylic acid dimethyl amide]: in test [1], the “selectivity (A1/A2a)” value is given as 27.2 and the Ki is 88 nM. The compound also had a Ki at HA1 adenosine receptor of 2400 nM.

Turning to `CC(C)N(Cc1ccccc1)C(=O)c1cc(N)n2nc(-c3ccccn3)nc2c1` [Example 433, 5-Amino-2-pyridin-2-yl-[1,2,4]triazolo[1,5-a]pyridine-7-carboxylic acid benzyl-isopropyl-amide], the “selectivity (A1/A2a)” value in test [1] is 11.8. In addition, the results for the Ki (in test [1]; on HA1 adenosine receptor) were 15.6 nM and 185 nM, respectively.

Take `Nc1cc(C(=O)N(Cc2ccccc2)Cc2ccccc2)cc2nc(-c3ccccn3)nn12` [Example 435, 5-Amino-2-pyridin-2-yl-[1,2,4]triazolo[1,5-a]pyridine-7-carboxylic acid dibenzylamide]: in test [1], the “selectivity (A1/A2a)” value is reported as 19 and the Ki stood at 6.4 nM. On HA1 adenosine receptor, this compound displayed a Ki of 121 nM.

On to `CCN(CCOC)C(=O)c1cc(N)n2nc(-c3nccs3)nc2c1` [Example 498, 5-Amino-2-thiazol-2-yl-[1,2,4]triazolo[1,5-a]pyridine-7-carboxylic acid ethyl-(2-methoxy-ethyl)-amide], for which, in test [1], the “selectivity (A1/A2a)” value came to 21 and the Ki is 190 nM. Moreover, the affinity on HA1 adenosine receptor corresponds to a Ki of 3990 nM.
